We go through 1 substance from patent US20090028795A1, “NOD1 as an Anti-Tumor Agent” (priority 2005, published 2009).

Common to all, as to type: cell-based, human
The subject of experiment [1] is MCF-7 C20 cells. Description: Propidium iodide exclusion cell death assay, Nod1-deficient MCF-7 C20 cells. The note with it: MCF-7C20 (without Nod1 expression), γTriDAP plus cycloheximide. As to the method: (§1) Cell viability assays. Propidium iodide exclusion assay: Cells were stimulated as indicated for 2 days. Subsequently, cells were harvested, washed twice in FACS buffer (PBS containing 1% FCS and 0.1% NaN3) and resuspended in propidium iodide (PI)-containing FACS buffer (4 ug/ml). The extent of cell death was analyzed with a FACSCalibur flow cytometer (Becton Dickinson, Mountain View, Calif.). DAPI staining: MCF-7 cells were plated in chamber slides, and stimulated for 2 days. Cells were washed with PBS and apoptotic nuclei were stained with 1 μg/ml DAPI (Sigma Chemical Co., St. Louis, Mo.). Cells were fixed in 4% paraformaldehyde and examined by fluorescence microscopy.
To further investigate the role of Nod1 in apoptosis, a variety of cell types were incubated with the Nod1 ligand, […] (γTriDAP), which specifically activates Nod1. The cell types tested included the parental MCF-7 cell line, the Nod1-deficient MCF-7C20 clone, and a cell line engineered to contain an additional human Nod1 allele (MCF-7Nod1) so that Nod1 was over-expressed. […] Cells were treated with γTriDAP in the presence or absence of cycloheximide (CHX) and cell death was then determined by propidium iodide staining and flow cytometry.

Experiment [2] deals with MCF-7 C20/Nod1 cells. The experiment in a line: Propidium iodide exclusion apoptosis assay, estrogen/tamoxifen studies. To be noted: γTriDAP-induced, C20/Nod1 cells.
Excerpt: FIG. 12A-C illustrates that estrogen increases γTriDAP-induced apoptosis and tamoxifen inhibits γTriDAP-induced apoptosis in various MCF-7 tumor cell lines. FIG. 12A graphically illustrates the percent apoptosis in MCF-7 Blasto, MCF-7 C20 and MCF-7 C20/Nod1 cells cultured in increasing amounts or estrogen and either cycloheximide (CHX) or CHX plus γTriDAP (γTri). FIG. 12B graphically illustrates the percent apoptosis in MCF-7 Blasto, MCF-7 C20 and MCF-7 C20/Nod1 cells cultured in increasing amounts of tamoxifen and either cycloheximide (CHX) or CHX plus γTriDAP (γTri). For the estrogen studies, MCF-7 cells were cultured in charcoal-treated medium and stimulated with γTriDAP/CHX in the presence of increasing concentrations of estrogen (E2) and cell viability was measured by propidium iodide (PI) exclusion. For the tamoxifen studies, cells were treated with tamoxifen prior to addition of γTriDAP/CHX and cell viability measured by PI exclusion. […] Total protein extracts from MCF-7 Blasto, MCF-7 C20 and MCF-7 C20/Nod1 cells and from cells isolated from tumors were analyzed by immunoblotting using antibody against estrogen receptor (ERα), and ERK2 as loading control.
as §1
To determine whether the presence of estrogens modulates Nod1-induced apoptotic pathway, cells were cultured in medium containing charcoal-treated serum.

The subject of experiment [3] is MCF-7 cells. Description: Apoptosis in the presence of TNFα (FIG. 8C). The note with it: with TNFα. The procedure: FIG. 8A-D illustrate that a synergistic relationship exists between NOD1 and TNFα. FIG. 8A graphically illustrates that the percentage of apoptotic cells increases in dose-specific manner as the concentration of NOD1 increases from 0.0 to 100 μg/ml and the concentration of TNFα increases from 0.5 ng/ml to 1 ng/ml. FIG. 8B graphically illustrates that the percentage of apoptotic cells increases in dose-specific manner as the concentration of cycloheximide increases from 0.0 to 3 μg/ml and the concentration of TNFα increases from 0.5 ng/ml to 1 ng/ml. […] FIG. 8D illustrates NOD1 expression at various time points after exposure of MCF-7 cells to TNFα.

The subject of experiment [4] is MCF-7 Nod1 cells. Description: Propidium iodide exclusion cell death assay, MCF-7 cells over-expressing Nod1. To be noted: MCF-7Nod1 cells, cycloheximide and γTriDAP, 48 h treatment. The procedure: as §1
To further investigate the role of Nod1 in apoptosis, a variety of cell types were incubated with the Nod1 ligand, […] (γTriDAP), which specifically activates Nod1. The cell types tested included the parental MCF-7 cell line, the Nod1-deficient MCF-7C20 clone, and a cell line engineered to contain an additional human Nod1 allele (MCF-7Nod1) so that Nod1 was over-expressed. To determine whether the resistance of C20 cells to γTriDAP-induced apoptosis resulted from the absence of Nod1, human Nod1 was stably expressed in MCF-7 C20 cells to produce Nod1-sufficient C20 cells (C20/Nod1). As another control, the parental MCF-7 cell line was transfected with an empty retroviral vector to generate MCF-7 Blasto cells. Cells were treated with γTriDAP in the presence or absence of cycloheximide (CHX) and cell death was then determined by propidium iodide staining and flow cytometry.

Experiment [5] concerns HT29. The experiment in a line: Apoptosis (PI staining), HT29 cells stably expressing Nod1. To be noted: HT29, Nod1 stably expressed; treatment as labelled. The procedure:
as §1
(§2) To determine if Nod1-dependent apoptosis occurs in other human cell lines, a series of epithelial cell lines were examined where Nod1 was stably expressed to enhance sensitivity to activation of the Nod1 pathway. Cells were treated with TNFα (T) and γTriDAP (γ) in the presence or absence of CHX (C) and monitored for viability by PI staining as a measure of apoptosis (Table 1).

The test system of experiment [6] is 293. Description: Apoptosis (PI staining), 293 cells stably expressing Nod1. The note with it: 293, Nod1 stably expressed; treatment as labelled. As to the method: as §1, §2
Experiment [7] concerns poly(ADP-ribose)polymerase (PARP) and capases 6, 7, 8 and 9. Description: Western blot of PARP and caspase cleavage in MCF-7 cells. The note with it: CHX 0.5 ug/ml, 24 h. The procedure:
Cleavage of PARP and various caspases was detected by Western blot analysis of cell MCF-7 Blasto, MCF-7 C20 and MCF-7 Nod1 after stimulation with γTriDAP, αTriDAP or medium (control) in the presence or absence of CHX (0.5 ug/ml) for 24 h. Cells were harvested, subjected to western blotting and PARP, caspases, p20, p41/43 and p35 were detected with antibodies reactive thereof.
Western blot analysis and immunoprecipitation. Cells were washed extensively and lysed using lysis buffer containing 50 mM Hepes, 100 mM NaCl, 2 mM EDTA, 10% glycerol, 1% Nonidet P-40, 14 μM pepstatin A, 100 uM leupeptin, 3 mM benzamidine, 1 mM PMSF, 1 mM sodium pyrophosphate, 10 mM sodium orthovanadate, 100 U/ml aprotinin, and 100 mM sodium fluoride. After incubation for 30 min on ice, cell lysates were centrifuged (14000 rpm, 10 min, 4° C.) and the supernatants were recovered. For immunoprecipitation, cell lysates were mixed with 5 μg of antibody for 3 hour at 4° C. under constant agitation. Immune complexes were allowed to bind to 20 μl protein A-Sepharose beads overnight, beads were washed three times with lysis buffer. Immunoprecipitates were separated on SDS-PAGE and transferred to PVDF membranes.

Experiment [8] concerns A431. Description: Apoptosis (PI staining), A431 cells stably expressing Nod1. To be noted: A431, Nod1 stably expressed; treatment as labelled. The procedure:
as §1, §2

Experiment [9] has as its system MCF-7 C20 cells with Nod2. The experiment in a line: Apoptosis in MCF-7 C20 cells complemented with Nod2. The note with it: MCF-7 C20 complemented with Nod2 (data not shown).
The test system of experiment [10] is SK-BR3. Description: Apoptosis (PI staining), SK-BR3 cells. As to the method: as §1, §2

Non-standard residues stand in square brackets, D forms with d. No end group written: not given here. DAP = diaminopimelic acid

On to “D-Ala-L-Glu-Diaminopimelic acid ([dA]-Glu-[DAP]; also: Glu joined to DAP through its gamma carboxyl (γTriDAP))”, for which the apoptosis result was “totally resistant” in experiment [1]; 80% in experiment [2] (with steroids); 10% in [2] (without steroids (charcoal-treated serum)); “poorly responsive” in experiment [5]; “resistant” in experiment [6]; “only undergo apoptosis when γTriDAP was added together with TNFα and CHX” in experiment [8]. The apoptosis result in experiment [9] is “did not result in apoptosis”; in experiment [10] (SK-BR3, Nod1 stably expressed, treatment as labelled) it was “only undergo apoptosis when γTriDAP was added together with TNFα and CHX”. The “apoptosis in the presence of TNFα” value in experiment [3] is “increases apoptosis”. Further, in [4], the cell death is reported as around 60%. Further, the “proteolytic cleavage of PARP and capases 6, 7, 8 and 9” value in experiment [7] was “resulted in proteolytic cleavage”. Besides, the “apoptosis of SKBR3 cells” value in [10] (plus TNFα and cycloheximide (FIG. 9B)) is “highest”.
